Laboratory results: paper PMC10347550, “Cyclic Ruthenium-Peptide Conjugates as Integrin-Targeting Phototherapeutic Prodrugs for the Treatment of Brain Tumors” (Journal of the American Chemical Society, 2023)
Like-named read-outs stand apart in the source and are kept apart here.

Tests used:
U87MG cells [1] = assay: Apopxin/Nuclear Green DCS1 double-staining cell death mode study; assay type: cell-based, human; conditions: 20 μM, 24 h incubation, 1 h after green light (13.1 J/cm^2), flow cytometry
Experimental: After 24 h of incubation, one plate labeled light was irradiated for 20 min using 520 nm green light (13.1 J/cm^2), and then both plates were allowed to incubate further for 1, 2, 6, or 24 h in a normoxia incubator. After incubation, the cells were trypsinized, collected, and washed with cold PBS twice. […] Cells after staining were detected by flow cytometry (CytoFLEX flow cytometer) immediately. Control groups with only assay buffer, only buffer and Apopxin Deep Red Indicator, only buffer and Nuclear Green DCS1, and all three were included to be used for gating during data analysis. Parameters APC (638 nm excitation, 660/10 nm emission) and FITC (488 nm excitation, 525/40 nm emission) were used considering their similar excitation/emission wavelength with two detectors Apopxin Deep Red Indicator, Ex/Em = 630/660 nm (apoptosis), and Nuclear Green DCS1, Ex/Em = 490/520 nm (necrosis).

U87MG spheroids = assay: 3D tumor spheroid viability assay, CellTiter-Glo 3D; assay type: cell-based, human; conditions: U87MG 3D spheroids, CellTiter-Glo 3D at 96 h, n = 3
Experimental: The spheroids were incubated further under normoxia. […] After 30 min of shaking on an IKA Vibrax shaker at 500 rpm at room temperature, the luminescence in each well was measured with a Tecan microplate reader. […] All experiments were conducted in three biologically independent replicates.

U87MG cells [2] = assay: 2D cytotoxicity assay, 24 h DLI & no wash, SRB endpoint; assay type: cell-based, human; conditions: U87MG 2D monolayer, not washed, SRB at 96 h, n = 3
Experimental: (§1) For each complex, two identical plates were prepared, one of which was irradiated with light, while the other was used as a dark control. […] Finally, at t = 96 h, 100 μL of cold trichloroacetic acid (10% w/v) was added to each well to fix the cells, and all plates were then transferred to a 4 °C refrigerator for 48 h before performing an SRB cell quantification endpoint assay.[72] Trichloroacetic acid was first removed and each plate was gently washed with demi water 3–5 times. Then, each well was dried in the air, and 100 μL of 0.6% SRB solution (0.6% w/v in 1% v/v acetic acid/H2O solution) was added into each well where it was allowed to stain for 30 min. Then, the plates were washed 3–5 times using an acetic acid solution (1% v/v). Once the plate was washed it was allowed to dry overnight. Then, 200 μL of 10 mM Tris base buffer was added to each well and the plate was allowed to sit on an orbital shaker for 0.5–16 h. After mixing, the absorbance of each well was determined by an M1000 Tecan Reader, reading at 510 nm. All experiments were conducted in independent biological triplicate. The obtained data were analyzed with Graphpad Prism 5 using the dose–response two-parameter Hill slope equation (eq 1) to obtain the half-maximal effective concentrations EC50 (defined as the concentration of drug that kills 50% of cells, compared to the untreated control). [drawing 1] 1

PC-3 cells = assay: as above; assay type: cell-based, human; conditions: PC-3 2D monolayer, not washed, SRB at 96 h, n = 3
Experimental: as §1

A549 cells = assay: as above; assay type: cell-based, human; conditions: A549 2D monolayer, not washed, n = 3
Experimental: as §1

U87MG cells [3] = assay: Intracellular ROS generation, CellROX Deep Red, flow cytometry; conditions: 15 µM, 24 h
Experimental: The generation of ROS (reactive oxygen species) in U87MG cells was measured using a ROS deep red fluorescence indicator (Abcam, ab186029). U87MG (1 × 10^5, 1 mL) were seeded into 12-well plates and incubated for 24 h in the dark under normoxia. The cells were then treated with 15 μM complexes with Opti-MEM, Λ-[1]Cl2, Δ-[1]Cl2, cisplatin, or Rose Bengal. There are two groups for each drug (dark + light). After 24 h of incubation under normoxia, the plate was washed with cold PBS once, and cells were trypsinized, harvested, and then resuspended in 150 μL of PBS. The cell suspension from the centrifuge tubes was transferred to 96-round-bottom well plates (Thermo Scientific, 268200), and the light group was irradiated for 20 min with 520 nm light (dose = 13.1 J/cm^2). After which, the Cellular ROS Deep Red dye (abcam, ab186029) was added with 1000× dilution, and cells were further stained for 1 h. Untreated cells were maintained as negative controls, whereas a 250 μM tBHP solution in Opti-MEM complete was administered as a positive control for ROS. The levels of intracellular ROS were then determined using the CytoFLEX flow cytometer. Forward versus side scatter (FSC vs SSC) gating was used to select the population of interest and avoid cell debris. A forward scatter height (FSC-H) vs forward scatter area (FSC-A) gating was used for doublet exclusion. Fluorescence measurements were acquired with the APC-A (638 nm excitation, 660/10 nm emission) channel given the known excitation/emission wavelengths of the ROS Deep Red dye (650/675 nm, respectively). All flow cytometry data were processed using FlowLogic 8.5 software.

[4] = system: wild-type U87MG cells (U87MG-wt); assay: Cellular Ru uptake by ICP-MS, 2 h; assay type: cell-based, human; conditions: 10 μM, dark, normoxia, n = 3
Experimental: (§2) The uptake studies in U87MG and U87MG-kd cell lines were conducted as follows: 2 × 10^5 cells were cultured in 6-well plates for 24 h in Opti-MEM (2 mL), after which cells were incubated with Δ-[1]Cl2 or Δ-[3]Cl2 (10 μM) for 2 h, washed with cold PBS twice, harvested, concentrated in 200 μL of PBS, and counted using trypan blue and a cell counter (Bio-Rad). Finally, cell pellets were collected in 1.5 mL Eppendorf tubes after removing additional PBS by centrifuging at 500g; 0.25 mL of 65% HNO3 was then added to each tube, and all tubes were kept at room temperature (RT) overnight. The cell lysates were transferred to 15 mL centrifuge tubes (Biologix) and filled with 4.75 mL of MilliQ H2O.
(§3) The ruthenium concentration was measured in each sample by ICP-MS (NexION 2000, PerkinElmer), providing the metal content in each well in ppb. Combining the cell numbers and Ru uptake, averaging over technical triplicates, the ruthenium uptake values were finally expressed in μg Ru/million cells.

[5] = system: ITGAV knockdown U87MG cells (U87MG-kd); assay: Cellular Ru uptake by ICP-MS, 2 h; assay type: cell-based, human; conditions: 10 μM, dark, normoxia, n = 3
Experimental: as §2, §3

[6] = Octanol-water partition coefficient (log P); assay type: physicochemical; conditions: shake-flask, octanol-saturated water / water-saturated octanol, shaken 24 h in the dark, room temperature; Ru in water phase by ICP-MS; ± SD from 4 concentration points
Experimental: Each complex was first dissolved in octanol-saturated water (0.5 mM, 500 μL) and centrifuged (2000 rpm, 5 min) to isolate the undissolved solid. 450 μL of the supernatant was taken out as the stock solution; after that, 5, 10, 50, 100, and 150 μL of solution were added to the 15 mL tube, and more octanol-saturated water was added to adjust the final volume to 1 mL. 1 mL of water-saturated octanol was added further, and the tubes were mildly shaken (Gesellschaft für Labortechnik mbH, type3016) for 24 h under dark conditions. After that, the solutions were centrifuged for 5 min at 2000 rpm at room temperature, and 0.5 mL of the water phase (below phase) was moved to a 15 mL centrifuge tube by an Eppendorf pipette. Then, 0.1 mL of 65% HNO3 was added into the tube using an organic pipette gun, and each solution was shaken for 1 h. 9.9 mL of MilliQ water was added into each tube, making a total volume of 10 mL. To detect the Ru content of the stock solution, 10 μL of each stock solution was mixed with 0.490 mL of 65% HNO3, and the mixture was shaken for 1 h. Then, […] of MilliQ water was added to the tube, making a total volume of 10 mL. ICP-MS measurement was performed using a NexION 2000 from PerkinElmer. The ruthenium content in each well was obtained in ppb. The partition coefficients (log P) were calculated using the following eq 3 [drawing 3] 3
where [complex]total is the concentration of the complex in the control sample (where no water-saturated octanol was added) and [complex]water is the concentration of the complex in the aqueous layer.

integrin αIIbβ3 = target: T1, integrin αIIbβ3 (Homo sapiens, UniProt P05106+P08514); conditions: literature values; read-out: Kd for the same integrin heterodimers (αIIbβ3); cited from earlier work
T1 construct: Purified human platelet glycoprotein integrin αIIbβ3; purchased Enzyme Research Laboratories GP2b3a; host or cells: human platelets (natural source)
Experimental: Since the ruthenium complexes were designed to target integrins, their interaction with the protein should be a key process for recognition, uptake, and toxicity. To check whether the ruthenium-coordinated peptide still retained the interaction binding affinity with the targeted integrin, the association constant (Ka) of both isomers of [1]Cl2 to integrin αIIbβ3 was measured using luminescence spectroscopy. In this assay, the emission intensity from aromatic residues (tryptophan, tyrosine, and phenylalanine) in integrin αIIbβ3 (λemi = 345 nm) was monitored upon the addition of different concen ...

[7] = 21% O2, dark, 24 h treatment, read-out: EC50,dark
[8] = 1% O2, dark, 24 h treatment, read-out: EC50,dark
[9] = 1% O2, 520 nm, 7.22 mW/cm^2, 13.1 J/cm^2, 30 min, read-out: EC50,light
[10] = 21% O2, 520 nm, 10.9 mW/cm^2, 13.1 J/cm^2, 20 min, read-out: EC50,light

N.N.[Cl][Pt][Cl] [cisplatin, reference compound]
cell death mode (U87MG cells [1]): mainly died via apoptosis | EC50 (U87MG spheroids; [7]): 8.6 µM | EC50 (U87MG spheroids; 21% O2, green light after 24 h treatment, read-out: EC50,light): 7.9 µM | EC50 (U87MG cells [2]; [8]): 13 µM | EC50 (U87MG cells [2]; [9]): 12.5 µM | EC50 (U87MG cells [2]; [7]): 2.8 µM | EC50 (U87MG cells [2]; [10]): 4 µM | EC50 (PC-3 cells; [8]): 23.1 µM | EC50 (PC-3 cells; [9]): 25.8 µM | EC50 (PC-3 cells; [7]): 4.5 µM | EC50 (PC-3 cells; [10]): 4.1 µM | EC50 (A549 cells; 1% O2, dark, 24 h treatment, SRB at 96 h, read-out: EC50,dark): 6.5 µM | EC50 (A549 cells; 1% O2, 520 nm, 7.22 mW/cm^2, 13.1 J/cm^2, 30 min, SRB at 96 h, read-out: EC50,light): 6.3 µM | EC50 (A549 cells; 21% O2, dark, 24 h treatment, SRB at t = 96 h, read-out: EC50,dark): 2.3 µM | EC50 (A549 cells; 21% O2, 24 h treatment, 520 nm, 10.9 mW/cm^2, 13.1 J/cm^2, 20 min, SRB at 96 h, read-out: EC50,light): 2.4 µM | Ratio of L/D (light/dark ROS ratio) (U87MG cells [3]): 0.81

[Ru(Ph2phen)2(κ^S,κ^N-Ac-MRADH-NH2)]Cl2 (sidechain bridge or staple) [Δ-[3]Cl2, Gly-Ala analogue of [1]Cl2]
cellular uptake compared to Δ-[1]Cl2 [4]: significantly lower | uptake amount compared to U87MG-wt cells [5]: taken up in similar amounts | log P (octanol-water partition coefficient) [6]: 0.02 ± 0.05

fibrinogen
Kd (integrin αIIbβ3): 0.03 µM
